Measured values reported in patent publication US10857136B2, “Compounds for use in the prevention and/or treatment of non-alcoholic fat liver disease and non-alcoholic steatohepatitis” (SJT MOLECULAR RESEARCH, SL, priority 2017, dated 2020).

What was measured:
Assay type in all cases: in vivo
[1] = tested on: DIO mice (C57Bl/6J male mice); test: Insulin resistance (HOMA-IR), 36 days assay in DIO mice; conditions: 50 mg/kg orally twice daily for 36 days, days 1, 8, 15, 22, 29 and 36, vs saline control, similar to metformin 150 mg/kg
Method: To assess the performance of the compounds disclosed in decreasing insulin resistance, DIO mice (C57Bl/6J male mice) were treated with hydrochloride salts of compounds 4a, 5a; and with compound 7a during 36 days, versus a control treated with saline (0.9% NaCl) and versus DIO mice treated with metformin as a positive control.
(§1) For the assessment, 60 C57Bl/6 J male mice (16-week-old at delivery and 40 g of average weight), obtained from Charles River France put on high fat diet for 10 weeks. The animals were housed in ventilated and enriched housing cages (310×125×127 mm^3) throughout the experimental phase. Animals' cages litters were changed at least once a week. Mice were housed in groups of 10 mice on a normal 12 hours light cycle (at 08:00 pm lights were switched off), at 22±2° C. and 50±10% relative humidity. After reception, mice were maintained for three additional acclimation weeks. During the whole test (acclimation+treatment phase) a high fat diet (D12492 purchased from Research Diet Inc.; 60% fat) and tap water were provided ad libitum.
(§2) After the acclimation period, mice were fasted for 6 hours and blood glucose and plasma insulin were measured. Ten animals, those with lower blood glucose/plasma insulin, were discarded from the study. […]
Body weight were weekly measured as well as blood glucose and plasma insulin after a 6 hour-fasting.
Blood glucose was measured by sampling blood from the tip of the tail: a drop of blood is collected and placed on a glucometer strip (Accu-Check® glucometer, Roche, Switzerland). Plasma insulin was detected via ELISA (Elisa Kit, Eurobio, France) using 5 μl samples.
The Homeostatic model assessment-insulin resistance index (HOMA-IR), which is used to quantify insulin resistance, was calculated from fasting blood glucose, and plasma insulin values as follows: HOMA-IR=(mM glucose×μU/mL insulin)/22.5, being this constant a normalizing factor (Matthews et al., 1985, Diabetologia 28(7), 412-9).

[2] = tested on: DIO mice (C57Bl/6J male mice); test: Liver weight, 36 days assay in DIO mice; conditions: 50 mg/kg orally twice daily, after 36 days, vs saline control and metformin 150 mg/kg
Method: To assess the performance of the compounds disclosed decreasing liver overweight, DIO mice (C57Bl/6J male mice) were treated with compounds 4a and 5a during 36 days, versus a control of DIO mice treated with vehicle (0.9% NaCl) and DIO mice treated with Metformin as a positive control.
as §1, with “C57Bl/6J” for “C57Bl/6 J”, “France, were” for “France”, “(D12492;” for “(D12492”, “Inc” for “Inc.;”
as §2, with “study. Then, the others were randomized into 5 homogenous groups (n=10 mice per group) according to their blood glucose/plasma insulin levels (HOMA-IR) and body weight.” for “study.”

[3] = tested on: DIO mice (C57Bl/6 J male mice); test: Liver lipid content, 36 days assay in DIO mice (colorimetric kits); conditions: 50 mg/kg orally twice daily, after 36 days, vs saline control
Method: To assess the performance of the compounds disclosed in decreasing hepatic lipid content, DIO mice (C57Bl/6 J male mice) were treated with a hydrochloride salt of compound 4a; and with compound 7a during 36 days, versus a control of DIO mice treated with saline (0.9% NaCl) and versus DIO mice treated with Metformin as a positive control.
as §1, with “France, were” for “France”, “assessment” for “test”, “Inc;” for “Inc.;”
After the acclimation period, mice were fasted for 6 hours and blood glucose and plasma insulin were measured. Ten animals, those with lower blood glucose/plasma insulin, were discarded from the study. Then, the others were randomized into 5 homogenous groups (n=10 mice per group) according to their blood glucose/plasma insulin levels (HOMA-IR) and body weight. Mice were treated orally twice daily for 36 days with either saline solution (control group), SJT test compound (4a, 7a; 50 mg/kg) or metformin (150 mg/kg).
Finally, mice were sacrificed, and liver was collected, weighted and stored at −80° C. for additional analysis. Liver samples were dissected for liver lipids assay. Liver lipids were assayed using colorimetric commercial assay kits, from liver samples homogenate after lipid solubilization in deoxycholate as described by Miao et al., J Lipid Res, 2004, 45, 1410-17. Samples were homogenized with an ultrasound probe with 500 μl distilled water during few seconds. Then cholic acid at 1% is added to make lipids soluble. The measurement of the different lipids was then performed using colorimetric kits from Sobioda, France.

Structure (SMILES)	insulin resistance (HOMA-IR) [1]	liver weight (liver overweight) [2]	hepatic cholesterol [3]	hepatic fatty acids [3]	hepatic triglycerides [3]
COc1ccc(-c2nc(C(=O)NCCCN)cc3c2[nH]c2ccccc23)cc1 [Compound 5a, N(-propylamine)-1-benzosubstituted-β-carboline-3-carboxamide]	lower insulin resistance compared to the control animals	lower liver weight than either mice treated with metformin or than the control animals			
COc1ccc(-c2nc(C(=O)N/N=C/c3ccccc3)cc3c2[nH]c2ccccc23)cc1 [Compound 7a, 3-(carbohydrazyl-N′-phenylsubstitute)-1-benzosubstitute-β-carbolinic-3-carbohydrazide]	lower insulin resistance compared to the control animals		lower lipid levels than untreated control animals	lower lipid levels than untreated control animals	lower lipid levels than untreated control animals
